For test [1], the target named is T1, PARG (Homo sapiens, UniProt Q86W56). The test is described as follows: Inhibition of PARG enzymatic assay (TR-FRET enzymatic IC50 assay). The class given is biochemical. Also noted: purchased Peak Proteins. The note with it: hPARG 250 pM, biotinylated-PARylated PARP substrate 30 nM. An outline of the steps: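 Compound preincubated 1 h with 250 pM His-tagged hPARG, then 30 nM biotinylated PARylated hPARP1 substrate added for 10 min; buffer 50 mM Tris-HCl pH 7.4, EDTA/EGTA, 1 mM DTT, 23° C. TR-FRET read after 1 h with anti-His ULight antibody and streptavidin-europium; inhibition scaled between DMSO and no-enzyme controls.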
A general note: Time-resolved FRET reads energy transfer from a long-lived donor to a nearby acceptor.

The test system of test [2] is HCC1806-XRCC1 KD (knock down) cells. Briefly: Cellular viability assay (Cell Titer-Glo). The format is cell-based. The following applies: 96 h, HCC1806-shXRCC1 cells, 4 days of incubation, read-out: PARGi cell viability. The method, then: HCC1806-XRCC1 KD (knock down) cells were plated at 2000 cells/well in 96-well white plates with clear flat bottom. After 24 hours, the compounds of the disclosure were added starting at 30 μM for a 9-point dose response curve at 1:3 dilution. The compounds of the disclosure were added by Tecan digital dispenser excluding the outermost wells of the plate. All treatments were done in duplicates. After 4 days of incubation, 50 ul of Cell Titer-Glo (Promega) was added per well. After incubation with the reagent for 15 minutes, luminescence was read using a plate reader (TECAN). Average values of DMSO treated wells in a plate was calculated. All data points were normalized to that of the average DMSO value. The % of control for each sample compared to DMSO treated control samples. Curves are fit as % of control vs. log [compound concentration] using a 4 parameter inhibition model (Levenberg-Marquardt algorithm):
Fit=(A+((B−A)/(1+((C/x)^D))))

Test [3] has as its target T1, PARG. Briefly: Inhibition of PARG cellular assay (PAR foci in HeLa cells after MMS). The class given is cell-based. Also noted: endogenous in cells; host or cells: HeLa. The following applies: compound 1 h then MMS 1 h. An outline of the steps:
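HeLa cells pretreated with compound for 1 h, then given MMS for a further 1 h, fixed and immunostained for PAR polymer. High-content imaging quantified nuclear PAR foci intensity (PAR Foci IC50) and percent cells with foci signal >1.3 (PAR % positive IC50).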

Each structure is given as a SMILES string.

T1 sequence (Q86W56 whole entry): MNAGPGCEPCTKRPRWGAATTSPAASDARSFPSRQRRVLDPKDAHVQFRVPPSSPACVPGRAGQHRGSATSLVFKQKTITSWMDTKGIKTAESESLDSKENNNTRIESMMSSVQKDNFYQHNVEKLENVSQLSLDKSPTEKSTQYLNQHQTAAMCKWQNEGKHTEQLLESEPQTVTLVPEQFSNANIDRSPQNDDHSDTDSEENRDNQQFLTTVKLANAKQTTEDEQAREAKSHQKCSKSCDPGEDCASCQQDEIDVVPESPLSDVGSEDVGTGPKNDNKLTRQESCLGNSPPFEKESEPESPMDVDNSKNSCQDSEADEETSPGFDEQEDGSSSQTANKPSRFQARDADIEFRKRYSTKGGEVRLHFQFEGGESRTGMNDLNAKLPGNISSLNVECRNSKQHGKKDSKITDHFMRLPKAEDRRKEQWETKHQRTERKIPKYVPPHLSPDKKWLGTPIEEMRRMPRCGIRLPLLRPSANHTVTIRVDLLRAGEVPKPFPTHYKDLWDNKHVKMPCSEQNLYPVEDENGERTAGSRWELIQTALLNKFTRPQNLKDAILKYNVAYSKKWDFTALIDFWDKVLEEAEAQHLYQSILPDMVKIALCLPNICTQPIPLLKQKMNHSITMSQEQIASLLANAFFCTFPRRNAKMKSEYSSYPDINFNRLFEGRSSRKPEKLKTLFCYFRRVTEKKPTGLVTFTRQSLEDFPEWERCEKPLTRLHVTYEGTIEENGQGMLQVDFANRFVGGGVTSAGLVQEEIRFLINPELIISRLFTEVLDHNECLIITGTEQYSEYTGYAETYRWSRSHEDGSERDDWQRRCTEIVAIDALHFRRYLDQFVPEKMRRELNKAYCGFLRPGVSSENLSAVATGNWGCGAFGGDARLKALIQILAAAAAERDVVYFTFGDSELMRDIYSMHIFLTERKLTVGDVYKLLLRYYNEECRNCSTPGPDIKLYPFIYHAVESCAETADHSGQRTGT

Take `CC1(NS(=O)(=O)c2cc(N3CCC4(CC3)COC4)c3cnn(-c4nnc(C(F)F)s4)c3c2)CC1` [Example 23, ({1-[5-(difluoromethyl)(1,3,4-thiadiazol-2-yl)]-4-(2-oxa-7-azaspiro[3.5]non-7-yl)(1H-indazol-6-yl)}sulfonyl)(methylcyclopropyl)amine]: the IC50 in test [1] was at most 100 nM; in test [2], below 1000 nM; in test [3], at most 100 nM.

As to `CN(C)C(=O)N1CCN(c2cc(S(=O)(=O)NC3(C)CC3)cc3c2cnn3-c2nnc(C(F)F)s2)CC1` [Example 24, [4-(1-[5-(difluoromethyl)(1,3,4-thiadiazol-2-yl)]-6-{[(methylcyclopropyl)amino]sulfonyl}(1H-indazol-4-yl))piperazinyl]-N,N-dimethylcarboxamide], the IC50 in test [1] is at most 100 nM; in test [2] it was below 1000 nM; in test [3] it was at most 100 nM.

`N#CC1(NS(=O)(=O)c2cc(N3CCC4(CC3)COC4)c3cnn(-c4nnc(C(F)F)s4)c3c2)CC1` [Example 25, 1-[({1-[5-(difluoromethyl)(1,3,4-thiadiazol-2-yl)]-4-(2-oxa-7-azaspiro[3.5]non-7-yl)-1H-indazol-6-yl}sulfonyl)amino]cyclopropanecarbonitrile]: the IC50 in test [1] was at most 100 nM; in test [2] it was below 1000 nM; in test [3], at most 100 nM.

Take `C[C@@H]1CN(c2cc(S(=O)(=O)NC3(C#N)CC3)cc3c2cnn3-c2nnc(C(F)F)s2)CCO1` [Example 26, 1-[({4-((2R)-2-methylmorpholin-4-yl)-1-[5-(difluoromethyl)(1,3,4-thiadiazol-2-yl)]-1H-indazol-6-yl}sulfonyl)amino]cyclopropanecarbonitrile]: the figures for the IC50 in test [1], in test [2] and in test [3] were at most 100 nM, 1000 to 10000 nM and 100 to 300 nM, respectively.

Turning to `N#CC1(NS(=O)(=O)c2cc(N3CCC(O)CC3)c3cnn(-c4nnc(C(F)F)s4)c3c2)CC1` [Example 27, 1-[({1-[5-(difluoromethyl)(1,3,4-thiadiazol-2-yl)]-4-(4-hydroxypiperidyl)-1H-indazol-6-yl}sulfonyl)amino]cyclopropanecarbonitrile], the IC50 in test [1] was at most 100 nM; in test [2], 1000 to 10000 nM; in test [3], 300 to 1000 nM.

For `CC(C)C(=O)N1CCN(c2cc(S(=O)(=O)NC3(C#N)CC3)cc3c2ccn3-c2nnc(C(F)F)s2)CC1` [Example 28, 1-[({1-[5-(difluoromethyl)(1,3,4-thiadiazol-2-yl)]-4-[4-(2-methylpropanoyl)piperazinyl]indol-6-yl}sulfonyl)amino]cyclopropanecarbonitrile], the IC50 is at most 100 nM in test [1], below 1000 nM in test [2] and at most 100 nM in test [3].

In the case of `CCN(C)C(=O)N1CCN(c2cc(S(=O)(=O)NC3(C#N)CC3)cc3c2cnn3-c2nnc(C(F)F)s2)CC1` [Example 32, [4-(1-[5-(difluoromethyl)(1,3,4-thiadiazol-2-yl)]-6-{[(cyanocyclopropyl)amino]sulfonyl}(1H-indazol-4-yl))piperazinyl]-N-ethyl-N-methylcarboxamide], the IC50 is at most 100 nM in test [1], below 1000 nM in test [2] and at most 100 nM in test [3].

For the compound `N#CC1(NS(=O)(=O)c2cc(N3CCN(C(=O)N4CCC4)CC3)c3cnn(-c4nnc(C(F)F)s4)c3c2)CC1` [Example 33, 1-[({4-[4-(azetidinylcarbonyl)piperazinyl]-1-[5-(difluoromethyl)(1,3,4-thiadiazol-2-yl)]-1H-indazol-6-yl}sulfonyl)amino]cyclopropanecarbonitrile], the results for the IC50 in test [1], in test [2] and in test [3] were at most 100 nM, 1000 to 10000 nM and at most 100 nM, respectively.

Consider `C[C@@H]1CN(c2cc(S(=O)(=O)NC3(C#N)CC3)cc3c2cnn3-c2nnc(C(F)F)s2)CCN1C(=O)N(C)C` [Example 35, [(2R)-4-(1-[5-(difluoromethyl)(1,3,4-thiadiazol-2-yl)]-6-{[(cyanocyclopropyl)amino]sulfonyl}(1H-indazol-4-yl))-2-methylpiperazinyl]-N,N-dimethylcarboxamide], for which the values for the IC50 in test [1], in test [2] and in test [3] were at most 100 nM, below 1000 nM and at most 100 nM, respectively.

For `CC(C)C(=O)N1CCN(c2cc(S(=O)(=O)NC3(C#N)CC3)cc3c2cnn3-c2nnc(C(F)F)s2)CC1` [Example 38, 1-[({1-[5-(difluoromethyl)(1,3,4-thiadiazol-2-yl)]-4-[4-(2-methylpropanoyl)piperazinyl]-1H-indazol-6-yl}sulfonyl)amino]cyclopropanecarbonitrile], the IC50 in test [1] was at most 100 nM; in test [2] it was below 1000 nM; in test [3] it was at most 100 nM.

For `CC(C)(C)C(=O)N1CCN(c2cc(S(=O)(=O)NC3(C#N)CC3)cc3c2cnn3-c2nnc(C(F)F)s2)CC1` [Example 39, 1-[({1-[5-(difluoromethyl)(1,3,4-thiadiazol-2-yl)]-4-[4-(2,2-dimethylpropanoyl)piperazinyl]-1H-indazol-6-yl}sulfonyl)amino]cyclopropanecarbonitrile], the IC50 was at most 100 nM in test [1], below 1000 nM in test [2] and at most 100 nM in test [3].

Regarding `CNC(=O)C1CCN(c2cc(S(=O)(=O)NC3(C#N)CC3)cc3c2cnn3-c2nnc(C(F)F)s2)CC1` [Example 40, [1-(1-[5-(difluoromethyl)(1,3,4-thiadiazol-2-yl)]-6-{[(cyanocyclopropyl)amino]sulfonyl}(1H-indazol-4-yl))(4-piperidyl)]-N-methylcarboxamide], the IC50 in test [1] was at most 100 nM; in test [2] it was 10000 to 20000 nM; in test [3] it was 1000 to 10000 nM.

As for `N#CC1(NS(=O)(=O)c2cc(N3CCC4(CCO4)CC3)c3cnn(-c4nnc(C(F)F)s4)c3c2)CC1` [Example 41, 1-[({1-[5-(difluoromethyl)(1,3,4-thiadiazol-2-yl)]-4-(1-oxa-7-azaspiro[3.5]non-7-yl)-1H-indazol-6-yl}sulfonyl)amino]cyclopropanecarbonitrile], the IC50 in test [1] lay within 100 to 300 nM; in test [2] it was 1000 to 10000 nM; in test [3] it was 300 to 1000 nM.

Turning to `CN(C)C(=O)N1CCN(c2cc(S(=O)(=O)NC3(C#N)CC3)cc3c2cnn3-c2nnc(C(F)F)s2)CC1` [Example 43, [4-(1-[5-(difluoromethyl)(1,3,4-thiadiazol-2-yl)]-6-{[(cyanocyclopropyl)amino]sulfonyl}(1H-indazol-4-yl))piperazinyl]-N,N-dimethylcarboxamide], the values for the IC50 in test [1], in test [2] and in test [3] were at most 100 nM, below 1000 nM and at most 100 nM, respectively.

On to `N#CC1(NS(=O)(=O)c2cc(N3CCC4(CCCO4)CC3)c3cnn(-c4nnc(C(F)F)s4)c3c2)CC1` [Example 44, 1-[({1-[5-(difluoromethyl)(1,3,4-thiadiazol-2-yl)]-4-(1-oxa-8-azaspiro[4.5]dec-8-yl)-1H-indazol-6-yl}sulfonyl)amino]cyclopropanecarbonitrile], for which the IC50 in test [1] was in the range of 300 to 1000 nM; in test [2] it was 1000 to 10000 nM; in test [3] it was 1000 to 10000 nM.

In the case of `N#CC1(NS(=O)(=O)c2cc(N3CC4(COC4)C3)c3cnn(-c4nnc(C(F)F)s4)c3c2)CC1` [Example 45, 1-[({1-[5-(difluoromethyl)(1,3,4-thiadiazol-2-yl)]-4-(6-oxa-2-azaspiro[3.3]hept-2-yl)-1H-indazol-6-yl}sulfonyl)amino]cyclopropanecarbonitrile], the figures for the IC50 in test [1], in test [2] and in test [3] were 100 to 300 nM, 20000 to 30000 nM and 300 to 1000 nM, respectively.

In the case of `CN1CCC2(CCN(c3cc(S(=O)(=O)NC4(C#N)CC4)cc4c3cnn4-c3nnc(C(F)F)s3)CC2)C1` [Example 46, 1-[({1-[5-(difluoromethyl)(1,3,4-thiadiazol-2-yl)]-4-(2-methyl-2,8-diazaspiro[4.5]dec-8-yl)-1H-indazol-6-yl}sulfonyl)amino]cyclopropanecarbonitrile], the IC50 in test [1] was 100 to 300 nM; in test [2], 1000 to 10000 nM; in test [3] it was 1000 to 10000 nM.

For the compound `N#CC1(NS(=O)(=O)c2cc(N3CCC(CO)CC3)c3cnn(-c4nnc(C(F)F)s4)c3c2)CC1` [Example 47, 1-[({1-[5-(difluoromethyl)(1,3,4-thiadiazol-2-yl)]-4-[4-(hydroxymethyl)piperidyl]-1H-indazol-6-yl}sulfonyl)amino]cyclopropanecarbonitrile], the IC50 in test [1] was at most 100 nM; in test [2], 1000 to 10000 nM; in test [3], 300 to 1000 nM.

Turning to `N#CC1(NS(=O)(=O)c2cc(N3C[C@H]4COC[C@H]4C3)c3cnn(-c4nnc(C(F)F)s4)c3c2)CC1` [Example 48, 1-[({4-((1S,5R)-7-oxa-3-azabicyclo[3.3.0]oct-3-yl)-1-[5-(difluoromethyl)(1,3,4-thiadiazol-2-yl)]-1H-indazol-6-yl}sulfonyl)amino]cyclopropanecarbonitrile], the IC50 in test [1] fell in the range of 100 to 300 nM; in test [2] it was 1000 to 10000 nM; in test [3], 300 to 1000 nM.
